In ChEMBL document CHEMBL3507680, “University of Dundee, Gates Library screen for HepG2 cell viability”:

Assay: Human HepG2 cell viability assay in 384 well format
Assay type: toxicity, cell-based
Parameters: dose 125 nL, time 70.5 hour; cytotoxicity at 70.5 h: concentration not given beside the values
Details: HepG2 cells, read-out: Inhibition

Row | SMILES | cytotoxicity at 70.5 h [%]
1 | COCc1nn(C(C)C)c2c1CCN(Cc1ccc(C)s1)C2 | -8.69
2 | O=c1[nH]c(-c2ccc(F)c(F)c2)nc2c1CCNC2 | -1.92
3 | Cc1nc(NCc2cccnc2)c2c(n1)c(C)nn2C | -11.5
4 | CCN(CC)C(=O)c1nnsc1-c1ccc(C)cc1 | -8.98
5 | COc1ccc(CN2CCC3(CC2)CCN(c2ncccn2)CC3)cc1 | -6.69
6 | O=C(CNC(=O)c1ccoc1)NC(c1ccc(F)cc1)C(F)(F)F (stereo not drawn) | -3.8
7 | O=C(c1cccnc1)N1C[C@H]2CN(Cc3cccc(F)c3)C(=O)[C@H]2C1 | -3.89
8 | Cc1cnc(CNCc2cn(CCN3CCSCC3)nc2C)cn1 | 24.8
9 | Cc1cccc(S(=O)(=O)N2CC[C@H]3[C@H]2CCN3c2ncccn2)c1 | -6.57
10 | Cc1nn(C)c(C)c1NC(=O)CNC(c1ccc(F)cc1)C1CCC1 (stereo not drawn) | -7.04
11 | CCc1c(O)nc2nc(N3CCCC3)nn2c1C | -5.54
12 | Cc1noc(CS(=O)(=O)c2cc(F)ccc2F)n1 | -8.49
13 | COCC1CC2(CCN(Cc3ccncc3)CC2)CN1C(C)C (stereo not drawn) | -7.56
14 | CCCN(Cc1cccnc1)C(=O)C1CCN(Cc2ccco2)CC1 | -2.7
15 | CS(=O)(=O)N1CCCC12CCCN(C(=O)c1ccc3[nH]ccc3c1)C2 (stereo not drawn) | -10.6
16 | Cn1cc(CNC2CCc3ncnn3C2)c(-c2ccncc2)n1 (stereo not drawn) | -1.76
17 | CC1=CC[C@@H]2CN(C(=O)c3ccc(-c4nnn(C)n4)cc3)C[C@@H]2C1 | 6
18 | Cn1c(C(=O)NC(Cc2ccsc2)c2cccnc2)cc(=O)n(C)c1=O (stereo not drawn) | -0.464
19 | Cc1cc(C)cc(NC(=O)N(CCC#N)CCCN(C)C)c1 | -5.53
20 | O=C(NC1(c2nnn(CC3CC3)n2)CCCC1)c1ccccc1 | -7.63
21 | Cc1ccc(N2C[C@H]3CCC[C@@]3(COc3cccnc3)C2)nn1 | -8.26
22 | Cc1ccc(C)c2c(O)cc(CN3CCC(=O)NCC3C)nc12 (stereo not drawn) | -8.42
23 | Cc1nc2c(c(N3CC=CC3)n1)CCN(c1ncccc1C(N)=O)CC2 | -2.97

Row | SMILES | cytotoxicity at 70.5 h [%]
24 | COc1ccc(S(=O)(=O)N2CCc3ccc(Cl)cc32)cc1C(=O)O | 0.6
25 | O=C(Nc1cccc(C2SCCS2)c1)C1CCCN1c1nccs1 (stereo not drawn) | 0.117
26 | CS(=O)(=O)CCCOc1cccc(-n2ccnc2)c1 | -2.41
27 | COC(=O)[C@@H]1C[C@@H](O)CN1Cc1ccn(-c2ccc(F)cc2)n1 | -10.3
28 | Cc1cc(-c2nc(-c3c(C)ncc4c3CCNC4)no2)nc(C)n1 | 26.9
29 | Cc1noc(C)c1CN1CC[C@H]2OCC[C@@H](C(=O)NCC3CC3)[C@@H]2C1 | -3.12
30 | O=C(CCOc1cccc(F)c1)N1CCCC(n2cccn2)C1 (stereo not drawn) | -2.03
31 | Cc1nn(C)c(Oc2ccccc2)c1CNC1CCCCNC1=O (stereo not drawn) | -6.4
32 | COc1ccc(C2CC(=O)Oc3cc(C)[nH]c(=O)c32)c(OC)c1 (stereo not drawn) | -19.2
33 | COc1cccc(C(=O)NS(=O)(=O)c2cccc(C#N)c2)c1 | -6.99
34 | CC(C)CC(=O)N1CCc2nc(N3CCOCC3)nc(NC(C)C)c2C1 | -15.8
35 | CCCNC(=O)N1CCc2ccc(S(=O)(=O)N3CCOCC3)cc2C1 | -16.2
36 | N#CC1CCCN(c2nc(-c3ccccc3)nc3c2CCNCC3)C1 (stereo not drawn) | 6.37
37 | CCc1[nH]nc(NC(=O)c2ccc(Cl)cn2)c1C | 7.84
38 | CN(CCc1ccccc1)c1cnn(Cc2ccccn2)c(=O)c1 | -4.29
39 | CN(C)CCN(Cc1ccccc1)C(=O)CN1CCCNC1=O | -0.477
40 | CC(NC(=O)NCCCN(C)S(C)(=O)=O)c1ccncc1 (stereo not drawn) | -3.33
41 | N#Cc1ccnc(N2CCN(CC(O)c3ccc(F)c(F)c3)CC2)c1 (stereo not drawn) | -2.47
42 | CN1C[C@H](c2ccccc2)[C@H]2CN(C(=O)Cc3cccc(O)c3)CC[C@H]21 | -2.25
43 | CC(Cn1cccn1)NC(=O)Nc1nnc(C2CC2)s1 (stereo not drawn) | -11
44 | COC(=O)c1sccc1CN1CCN(C(=O)c2ccc(C)o2)CC1 | -8.65
45 | O=C(NCC1CC[C@@H]2[C@@H]1OCCN2Cc1cccs1)c1ccco1 (stereo partly drawn) | -0.679
46 | Cc1ccc(NC(=O)CNC(C)CN2CCOCC2)c(F)c1 (stereo not drawn) | -9.12

Row | SMILES | cytotoxicity at 70.5 h [%]
47 | CC(C)CN1C(=O)CO[C@@H]2CN(C(=O)C3CCOCC3)C[C@H]21 | -4.41
48 | O=C(CCN1CCCCO1)N1CCC(CO)(CCc2ccccc2)CC1 | -10.2
49 | Cc1cccc(-c2c[nH]c(C3CCCN3C(=O)C3CCOCC3)n2)c1 (stereo not drawn) | -10.3
50 | O=C(COc1coc(CN2CCCCC2)cc1=O)Nc1ccccc1Cl | -9.78
51 | CCCN(CC1COc2ccccc2O1)C(=O)C1=NN(C)C(=O)CC1 (stereo not drawn) | -9.94
52 | COC(=O)c1ccc(C(=O)N2CCc3c(ncn3C3CC3)C2)cc1 | -5.37
53 | Cc1nccn1CC1CCCN1S(=O)(=O)Cc1ccon1 (stereo not drawn) | 4.51
54 | Cc1noc(C)c1CN1CCC2(CC1)CN(c1ccccn1)CCO2 | 17.3
55 | CCN1Cc2c(C(=O)NC)ncn2-c2ccccc2S1(=O)=O | -6.74
56 | FC(F)(F)COc1ccc(CSCc2ccon2)cn1 | -8.78
57 | COCCN(Cc1sccc1C)Cc1nccn1CCOC | -4.3
58 | CSCCc1ccc(NC(=O)NCc2ccnc(N(C)C)c2)cc1 | 16.5
59 | COC(=O)CCC(=O)N1CCc2nc(C(=O)N3CCOCC3)sc2CC1 | 1.24
60 | Cn1cc(CN2C[C@@H]3CN(C(=O)c4cccn4C)CCO[C@@H]3C2)cn1 | -2.93
61 | CC(C(=O)N1CCC(c2[nH]ncc2-c2ccccc2)CC1)n1cncn1 (stereo not drawn) | -9.13
62 | CS(=O)(=O)CC1(CNc2cc(C#N)c3cc(Cl)ccc3n2)CC1 | -6.39
63 | Cc1ccn2ncc(C(=O)N3CCCC(n4ccnc4C)C3)c2n1 (stereo not drawn) | -2.96
64 | Cc1ccc(OC2(C(=O)O)CCN(C(=O)CCc3ccco3)CC2)cc1 | -3.25
65 | CCC(=O)NCC(=O)NC(C)c1sc(-c2ccccc2F)nc1C (stereo not drawn) | 10.3
66 | CCc1nc2n(n1)CC(NCc1cc(OC)c3c(c1)OCO3)CC2 (stereo not drawn) | 1.22
67 | Cc1cnn(CC2CCCCN2Cc2c(C)noc2C)c1 (stereo not drawn) | -14.5
68 | CN(Cc1cc2n(n1)CCNC2)Cc1n[nH]c2c1CCCCC2 | -1.36
69 | CCc1nc(NS(=O)(=O)c2cc(C)cc(F)c2)no1 | -0.337

Row | SMILES | cytotoxicity at 70.5 h [%]
70 | CCS(=O)(=O)N1Cc2c(Cn3ccnc3)nn(C(C)C)c2C1 | 10.4
71 | CN1N=C(C(=O)N(Cc2ccco2)C2CCCC2)CCC1=O | -9.57
72 | CN1CCN(S(=O)(=O)c2ncn(C)c2Cl)CC1 | -5.44
73 | CN1CCC(CNC(=O)Cc2ccc(N(C)C)cc2)CC1 | -6.81
74 | CN(C)C(=O)CN1CC[C@]2(CN(CC3CC3)C[C@H]2c2ccccc2)C1=O | -6.06
75 | Cc1ccc(C2COCCN2C(=O)c2ccc(CN(C)C)cc2)o1 (stereo not drawn) | -6.21
76 | CCc1nn(C)c(Cl)c1CN1CCC(Cc2nncn2C)CC1 | -3.75
77 | Cc1ccc(CNC(c2ccc(F)cc2)c2nccn2C)o1 (stereo not drawn) | -7.32
78 | Cc1noc2ncc(S(=O)(=O)N3CCCC(C)(C)CC3)cc12 | -2.62
79 | CS(=O)(=O)CCC(=O)Nc1cc(F)ccc1OCC1CCCO1 (stereo not drawn) | 12.1
80 | CCNC(=O)NC(=O)CN(CC(C)O)c1ccccc1 (stereo not drawn) | -7.42
81 | OC[C@H]1CCCN1c1nccc(-c2c[nH]nc2C2CCCCC2)n1 | 2.37
82 | Cc1ncncc1-c1ccnc(N)n1 | -2.72
83 | Cc1ccc2c(c1)CN(C(=O)C1CCCCC1)C(CN(C)C)CO2 (stereo not drawn) | 0.565
84 | N#Cc1ccccc1CNC(C(=O)N1CCOCC1)c1ccccc1 (stereo not drawn) | -1.56
85 | Cc1cc(CN(C)CC2CCCCC2)no1 | -2
86 | O=C1CCC(C(=O)N2CCOC(Cc3ccccc3Cl)C2)=NN1 (stereo not drawn) | -8.63
87 | O=C(c1cnc(-c2ccco2)s1)N1CCCC1Cn1cccn1 (stereo not drawn) | 1.15
88 | CSc1ccc(-c2nc(CN3CCNCC3C)c(C)o2)cc1 (stereo not drawn) | 3
89 | O=C(CC1CCc2ccccc21)NCCSc1ccccn1 (stereo not drawn) | 11.8
90 | Cc1cc(C)c2[nH]c(=O)c(CN3CCCC4(C3)CN(C)C(=O)O4)cc2c1 (stereo not drawn) | -8.68
91 | Cc1cccc(OCCC(=O)N2CCCN(CC(N)=O)CC2)c1C | -12
92 | Cc1nc(N2CCN(C(=O)c3ccccc3)CC2)c2cnn(C)c2n1 | -0.834

Row | SMILES | cytotoxicity at 70.5 h [%]
93 | CC(c1cccc(-c2ncccc2F)c1)N(C)C (stereo not drawn) | -14.8
94 | CN(C(=O)NCCN1CCOCC1)C1CCN(c2ccccc2)C1=O (stereo not drawn) | -14.1
95 | Cc1ccc(C)c(C(=O)NCC(c2cccn2C)N2CCCCCC2)c1 (stereo not drawn) | -1.53
96 | Cc1ccc(C2COCCN2C(=O)c2ccc(F)c(F)c2)o1 (stereo not drawn) | -0.394
97 | O=C(Nc1ccc(-c2cscn2)cc1)C1CCCN(Cc2ccon2)C1 (stereo not drawn) | -1.4
98 | CC(CO)CNC(=O)c1cc2cccc(F)c2o1 (stereo not drawn) | -9.63
99 | Nc1cc(-c2cc(C(=O)O)ccc2Cl)c2cc[nH]c2n1 | -8.39
100 | CCOCc1nc(CSc2ccncc2)n(C)n1 | 6.25
101 | CCN(CC)C(=O)CN(C)C(=O)c1cccn1CCc1ccccc1 | -3.38
102 | N#Cc1ccc(CN2CCN(c3ccncc3Cl)CC2=O)cc1 | -4.03
103 | COC[C@@]12CCO[C@@H]1CCN(C(=O)c1ccc(F)c(F)c1)C2 | 0.0264
104 | COCC(=O)NCCc1ccc(Cl)s1 | -9.93
105 | Cc1cc(F)cc2c(N3CCC(S(N)(=O)=O)CC3)c(C#N)cnc12 | -4.86
106 | O=C1CCC2(CCCN(CCn3cc(Cl)cn3)C2)CN1C1CCCC1 (stereo not drawn) | -19.7
107 | COCC(=O)N1CCCC(c2cc(C(F)F)n3ncnc3n2)C1 (stereo not drawn) | -2.53
108 | CCn1ccnc1CN1CCN(c2cc(C)nc(C3CCCN3)c2)CC1 (stereo not drawn) | -5.1
109 | CC(=O)NCCc1cc(N2CCN(C(C)=O)CC2)nc(C2CC2)n1 | -5.29
110 | CSc1ccccc1NC(=O)CCN1CCC(C(=O)N(C)C)CC1 | 2.74
111 | CC(C)NC(=O)C1CN(Cc2cccs2)Cc2ccnn2C1 (stereo not drawn) | 3.45
112 | CCN1CCN(S(=O)(=O)c2cc(C)c(Cl)cc2C)CC1 | 2.46
113 | COc1cccc(CN2CCN(c3noc(C(C)C)n3)CC2)c1F | 1.87
